Laboratory results published in patent publication US9346813B2, “Substituted pyrrolo[2,3-d]pyrimindines as CDK9 kinase inhibitors” (AbbVie Inc., priority 2014, dated 2016).

The compounds below were run against T1, CDK9/Cyclin T1 (Homo sapiens, UniProt P50750) (assay: CDK9 enzyme protocol (LANCE ULight TR-FRET kinase assay)). Conditions: 4 nM CDK9/Cyclin T1, 1000 μM ATP, 100 nM U-light MBP peptide, 30 minutes.
T1 construct: purchased Carna Biosciences 04-110
Format: biochemical
Method: CDK9 enzyme activities were measured using LANCE ULight TR-FRET kinase assay reagents (PerkinElmer, Waltham, Mass.). Compounds were directly added in 100% DMSO to white low volume assay plates (Perkin Elmer Proxiplate 6008289) using a Labcyte Echo acoustic dispenser. Assay reagents in serine/threonine kinase assay buffer containing 20 mM HEPES, 10 mM MgCl2, 100 mM Na3VO4, and 0.0075% Triton X-100. were added for final reaction mixture concentrations of 1000 μM ATP, 100 nM U-light MBP peptide (Perkin Elmer TRF0109M) and reaction initiated with 4 nM CDK9/Cyclin T1 (Carna Biosciences 04-110). The kinase reaction was carried out for 30 minutes before addition of stopping buffer to a final of 20 mM EDTA and 0.5 nM of LANCE Ultra Europium anti-phospho-MBP antibody (PerkinElmer TRF0201M) in LANCE detection buffer (PerkinElmer CR97-100). The reaction was equilibrated for 1 hour and the signal read in the Perkin Elmer Envision in TR-FRET mode (excitation at 320 nm and emission at 615/665 nm).

T1 sequence (P50750 whole entry): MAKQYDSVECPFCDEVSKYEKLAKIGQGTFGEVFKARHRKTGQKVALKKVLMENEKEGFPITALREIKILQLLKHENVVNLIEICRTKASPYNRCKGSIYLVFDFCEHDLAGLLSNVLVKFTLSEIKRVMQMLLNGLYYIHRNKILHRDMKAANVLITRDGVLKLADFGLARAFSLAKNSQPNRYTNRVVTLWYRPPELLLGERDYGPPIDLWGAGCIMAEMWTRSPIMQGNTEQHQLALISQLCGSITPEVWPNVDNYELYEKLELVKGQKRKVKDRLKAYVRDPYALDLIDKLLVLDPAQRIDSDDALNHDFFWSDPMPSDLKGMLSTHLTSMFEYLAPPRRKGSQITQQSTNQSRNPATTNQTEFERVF
T1 sequence (O60563 whole entry partner): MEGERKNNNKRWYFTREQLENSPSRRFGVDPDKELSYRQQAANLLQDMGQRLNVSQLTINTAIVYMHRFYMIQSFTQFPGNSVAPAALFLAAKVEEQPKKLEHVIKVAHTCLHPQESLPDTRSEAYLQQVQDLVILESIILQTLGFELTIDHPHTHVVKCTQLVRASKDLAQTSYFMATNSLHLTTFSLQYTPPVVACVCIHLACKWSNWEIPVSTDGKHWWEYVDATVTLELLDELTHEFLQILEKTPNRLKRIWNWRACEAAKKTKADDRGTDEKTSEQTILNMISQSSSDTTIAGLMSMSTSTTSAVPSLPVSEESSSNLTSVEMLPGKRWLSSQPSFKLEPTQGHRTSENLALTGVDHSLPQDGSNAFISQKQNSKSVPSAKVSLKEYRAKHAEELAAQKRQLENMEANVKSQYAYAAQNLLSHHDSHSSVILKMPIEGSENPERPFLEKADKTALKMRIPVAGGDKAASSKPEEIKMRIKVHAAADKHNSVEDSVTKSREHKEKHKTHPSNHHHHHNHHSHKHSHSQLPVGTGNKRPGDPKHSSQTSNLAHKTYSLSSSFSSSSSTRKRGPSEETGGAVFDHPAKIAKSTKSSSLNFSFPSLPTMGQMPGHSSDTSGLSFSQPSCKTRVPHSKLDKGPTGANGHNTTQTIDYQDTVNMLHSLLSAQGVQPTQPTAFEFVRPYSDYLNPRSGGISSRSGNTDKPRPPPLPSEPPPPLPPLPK

Row | SMILES | IC50
1 | COc1ccc(F)cc1-c1ncnc2[nH]c(C3=CCN(C(=O)C4CCN4)CC3)cc12 (centres unmarked) [Example 12, azetidin-2-yl{4-[4-(5-fluoro-2-methoxyphenyl)-7H-pyrrolo[2,3-d]pyrimidin-6-yl]-3,6-dihydropyridin-1(2H)-yl}methanone] | 0.088 µM
2 | CCCCOc1ccc(F)cc1-c1ncnc2[nH]c(C3=CCN(S(C)(=O)=O)CC3)cc12 [Example 42, 4-(2-butoxy-5-fluorophenyl)-6-[1-(methylsulfonyl)-1,2,3,6-tetrahydropyridin-4-yl]-7H-pyrrolo[2,3-d]pyrimidine] | 1.2 µM
3 | CC(C)Oc1ccc(F)c(-c2ncnc3[nH]c(C4=CCN(S(C)(=O)=O)CC4)cc23)c1 [Example 52, 4-[2-fluoro-5-(propan-2-yloxy)phenyl]-6-[1-(methylsulfonyl)-1,2,3,6-tetrahydropyridin-4-yl]-7H-pyrrolo[2,3-d]pyrimidine] | 10.1 µM
4 | CCCOc1ccc(F)cc1-c1ncnc2[nH]c(C3=CCN(S(C)(=O)=O)CC3)cc12 [Example 49, 4-(5-fluoro-2-propoxyphenyl)-6-[1-(methylsulfonyl)-1,2,3,6-tetrahydropyridin-4-yl]-7H-pyrrolo[2,3-d]pyrimidine] | 1.3 µM
5 | CS(=O)(=O)N1CC=C(c2cc3c(-c4ccc(F)cc4F)ncnc3[nH]2)CC1 [Example 46, 4-(2,4-difluorophenyl)-6-[1-(methylsulfonyl)-1,2,3,6-tetrahydropyridin-4-yl]-7H-pyrrolo[2,3-d]pyrimidine] | 0.83 µM
6 | COc1ccc(C)cc1-c1ncnc2[nH]c(C3=CCN(S(C)(=O)=O)CC3)cc12 [Example 44, 4-(2-methoxy-5-methylphenyl)-6-[1-(methylsulfonyl)-1,2,3,6-tetrahydropyridin-4-yl]-7H-pyrrolo[2,3-d]pyrimidine] | 0.61 µM
7 | Cc1cc(Cl)cc(-c2ncnc3[nH]c(C4=CCN(S(C)(=O)=O)CC4)cc23)c1F [Example 41, 4-(5-chloro-2-fluoro-3-methylphenyl)-6-[1-(methylsulfonyl)-1,2,3,6-tetrahydropyridin-4-yl]-7H-pyrrolo[2,3-d]pyrimidine] | 11.7 µM
8 | CCOc1ccc(F)cc1-c1ncnc2[nH]c(C3=CCNCC3)cc12 [Example 67, 4-(2-ethoxy-5-fluorophenyl)-6-(1,2,3,6-tetrahydropyridin-4-yl)-7H-pyrrolo[2,3-d]pyrimidine] | 0.3 µM
9 | CS(=O)(=O)Nc1cccc(-c2ncnc3[nH]c(C4=CCN(S(C)(=O)=O)CC4)cc23)c1 [Example 48, N-(3-{6-[1-(methylsulfonyl)-1,2,3,6-tetrahydropyridin-4-yl]-7H-pyrrolo[2,3-d]pyrimidin-4-yl}phenyl)methanesulfonamide] | 0.29 µM
10 | CCCCOc1ccc(F)c(-c2ncnc3[nH]c(C4=CCN(S(C)(=O)=O)CC4)cc23)c1 [Example 54, 4-(5-butoxy-2-fluorophenyl)-6-[1-(methylsulfonyl)-1,2,3,6-tetrahydropyridin-4-yl]-7H-pyrrolo[2,3-d]pyrimidine] | 4.1 µM
11 | COc1ccc(F)cc1-c1ncnc2[nH]c(C3CCN(C)CC3)cc12 [Example 2, 4-(5-fluoro-2-methoxyphenyl)-6-(1-methylpiperidin-4-yl)-7H-pyrrolo[2,3-d]pyrimidine] | 0.11 µM
12 | CS(=O)(=O)N1CC=C(c2cc3c(-c4cc(C(F)(F)F)ccc4F)ncnc3[nH]2)CC1 [Example 51, 4-[2-fluoro-5-(trifluoromethyl)phenyl]-6-[1-(methylsulfonyl)-1,2,3,6-tetrahydropyridin-4-yl]-7H-pyrrolo[2,3-d]pyrimidine] | > 12.5 µM
13 | Cc1ccc(OC(C)C)c(-c2ncnc3[nH]c(C4=CCN(S(C)(=O)=O)CC4)cc23)c1 [Example 43, 4-[5-methyl-2-(propan-2-yloxy)phenyl]-6-[1-(methylsulfonyl)-1,2,3,6-tetrahydropyridin-4-yl]-7H-pyrrolo[2,3-d]pyrimidine] | > 12.5 µM
14 | CS(=O)(=O)N1CC=C(c2cc3c(-c4cc(NCc5ccccn5)ccc4F)ncnc3[nH]2)CC1 [Example 33, 4-fluoro-3-{6-[1-(methylsulfonyl)-1,2,3,6-tetrahydropyridin-4-yl]-7H-pyrrolo[2,3-d]pyrimidin-4-yl}-N-(pyridin-2-ylmethyl)aniline] | 0.3 µM
15 | Cc1ccc(F)c(-c2ncnc3[nH]c(C4=CCN(S(C)(=O)=O)CC4)cc23)c1 [Example 50, 4-(2-fluoro-5-methylphenyl)-6-[1-(methylsulfonyl)-1,2,3,6-tetrahydropyridin-4-yl]-7H-pyrrolo[2,3-d]pyrimidine] | 1 µM
16 | CS(=O)(=O)N1CC=C(c2cc3c(-c4ccccc4C(F)(F)F)ncnc3[nH]2)CC1 [Example 47, 6-[1-(methylsulfonyl)-1,2,3,6-tetrahydropyridin-4-yl]-4-[2-(trifluoromethyl)phenyl]-7H-pyrrolo[2,3-d]pyrimidine] | 1.4 µM

Other lines, results leading:

Row | IC50 | SMILES
17 | > 12.5 µM | CS(=O)(=O)N1CC=C(c2cc3c(-c4ccccc4OC(F)(F)F)ncnc3[nH]2)CC1 [Example 58, 6-[1-(methylsulfonyl)-1,2,3,6-tetrahydropyridin-4-yl]-4-[2-(trifluoromethoxy)phenyl]-7H-pyrrolo[2,3-d]pyrimidine]
18 | 2.8 µM | CCCOc1ccc(C)cc1-c1ncnc2[nH]c(C3=CCN(S(C)(=O)=O)CC3)cc12 [Example 53, 4-(5-methyl-2-propoxyphenyl)-6-[1-(methylsulfonyl)-1,2,3,6-tetrahydropyridin-4-yl]-7H-pyrrolo[2,3-d]pyrimidine]
19 | 5 µM | CS(=O)(=O)N1CC=C(c2cc3c(N4CCCC4)ncnc3[nH]2)CC1 [Example 62, 6-[1-(methylsulfonyl)-1,2,3,6-tetrahydropyridin-4-yl]-4-(pyrrolidin-1-yl)-7H-pyrrolo[2,3-d]pyrimidine]
20 | 4 µM | CS(=O)(=O)N1CC=C(c2cc3c(N4CCOCC4)ncnc3[nH]2)CC1 [Example 60, 6-[1-(methylsulfonyl)-1,2,3,6-tetrahydropyridin-4-yl]-4-(morpholin-4-yl)-7H-pyrrolo[2,3-d]pyrimidine]
21 | 0.91 µM | COc1ccncc1-c1ncnc2[nH]c(C3=CCN(S(C)(=O)=O)CC3)cc12 [Example 59, 4-(4-methoxypyridin-3-yl)-6-[1-(methylsulfonyl)-1,2,3,6-tetrahydropyridin-4-yl]-7H-pyrrolo[2,3-d]pyrimidine]
22 | 1.6 µM | CS(=O)(=O)N1CC=C(c2cc3c(-c4cccc(OC(F)(F)F)c4)ncnc3[nH]2)CC1 [Example 56, 6-[1-(methylsulfonyl)-1,2,3,6-tetrahydropyridin-4-yl]-4-[3-(trifluoromethoxy)phenyl]-7H-pyrrolo[2,3-d]pyrimidine]
23 | 1.3 µM | CS(=O)(=O)N1CC=C(c2cc3c(N4CCC(F)(F)CC4)ncnc3[nH]2)CC1 [Example 63, 4-(4,4-difluoropiperidin-1-yl)-6-[1-(methylsulfonyl)-1,2,3,6-tetrahydropyridin-4-yl]-7H-pyrrolo[2,3-d]pyrimidine]
24 | 0.45 µM | COc1ccc(F)cc1-c1ncnc2[nH]c(C3=CCN(Cc4ccc(NC(=O)OC(C)(C)C)cc4)CC3)cc12 [Example 69, tert-butyl [4-({4-[4-(5-fluoro-2-methoxyphenyl)-7H-pyrrolo[2,3-d]pyrimidin-6-yl]-3,6-dihydropyridin-1(2H)-yl}methyl)phenyl]carbamate]
25 | 2 µM | CS(=O)(=O)N1CC=C(c2cc3c(N4CC(F)(F)C4)ncnc3[nH]2)CC1 [Example 64, 4-(3,3-difluoroazetidin-1-yl)-6-[1-(methylsulfonyl)-1,2,3,6-tetrahydropyridin-4-yl]-7H-pyrrolo[2,3-d]pyrimidine]
26 | 2.4 µM | Cn1cc(-c2ncnc3[nH]c(C4=CCN(S(C)(=O)=O)CC4)cc23)cn1 [Example 57, 4-(1-methyl-1H-pyrazol-4-yl)-6-[1-(methylsulfonyl)-1,2,3,6-tetrahydropyridin-4-yl]-7H-pyrrolo[2,3-d]pyrimidine]
27 | 1.5 µM | CCOc1ccc(F)cc1-c1ncnc2[nH]c(C3=CCN(C(=O)OC(C)(C)C)CC3)cc12 [Example 66, tert-butyl 4-[4-(2-ethoxy-5-fluorophenyl)-7H-pyrrolo[2,3-d]pyrimidin-6-yl]-3,6-dihydropyridine-1(2H)-carboxylate]

These compounds were tested on H929 cells (assay: Cell viability assay in H929 cells (Cell TiterGlo)). Conditions: Homo sapiens, NCI-H929, 24 hours at 37° C.
Format: cell-based
Method: Cell viability assays were performed using A431 or H929 cells. A431 cells were seeded in 96-well plates at 10,000 cells/well, and after overnight incubation, treated with compounds at 2-times the final concentration to result in a dose response of 3-fold dilutions from 10 μM to 0.0005 μM (50 μL/well, 0.1% final DMSO concentration). H929 cells were seeded in 96-well plates at 10,000 cells/well and treated immediately with compounds as described above. After 24 hours at 37° C., cell viability was measured using Cell TiterGlo reagent (Promega) with a luminescence reader. Alternately, cell viability assays were performed in 384-well format. A431 cells were seeded in 384-well plates at 2500 cells/well and, after overnight incubation, treated with compounds in a dose response of 3-fold dilutions from 10 μM to 0.0005 μM (25 nL/well, 0.1% final DMSO concentration). For the H929 viability assay, 25 nL/well of the compounds was dispensed into 384-well plates in a dose response as described above and cells were immediately seeded in 384-well plates at 2500 cells/well. After 24 hours at 37° C., cell viability was measured using Cell TiterGlo reagent (Promega) with a luminescence reader.

Row | SMILES | EC50
28 | COc1ccc(F)cc1-c1ncnc2[nH]c(C3=CCN(C(=O)C4CCN4)CC3)cc12 (centres unmarked) [Example 12, azetidin-2-yl{4-[4-(5-fluoro-2-methoxyphenyl)-7H-pyrrolo[2,3-d]pyrimidin-6-yl]-3,6-dihydropyridin-1(2H)-yl}methanone] | 0.93 µM
29 | COc1ccc(F)cc1-c1ncnc2[nH]c(C3=CCN(CC(O)CO)CC3)cc12 (centres unmarked) [Example 20, 3-{4-[4-(5-fluoro-2-methoxyphenyl)-7H-pyrrolo[2,3-d]pyrimidin-6-yl]-3,6-dihydropyridin-1(2H)-yl}propane-1,2-diol] | 0.38 µM
